Data taken from ChEMBL document CHEMBL1124998, “3-(2-carboxyindol-3-yl)propionic acid derivatives: antagonists of the strychnine-insensitive glycine receptor associated with the N-methyl-D-aspartate receptor complex” (J Med Chem, 1990).

Experiments:
[1] = species on record: Rattus norvegicus; experiment: Activity was determined by inhibition of glutamate stimulated accumulation of cyclic GMP in neonatal rat cerebral slices.; format: functional
[2] = target: Glutamate NMDA receptor (Rattus norvegicus) (UniProt P35439+Q00959+Q00960+Q00961+Q62645+Q8VHN2+Q9R1M7); experiment: Selectivity ratio for CPP and gly NMDA binding; format: protein-complex assay
[3] = target: Glutamate NMDA receptor; experiment: Activity against rat cortical and hippocampal membrane N-methyl-D-aspartate glutamate receptor 1/2A/2B/2C/2D using [3H]CPP; format: tissue-based, Hippocampus
[4] = target: Glutamate NMDA receptor; experiment: Activity against rat cortical and hippocampal membrane strychnine-insensitive N-methyl-D-aspartate glutamate receptor 1 using [3H]-gly; format: tissue-based, Hippocampus

IC50 [1] [µM]	Ratio [2]	IC50 [3] [µM]	IC50 [4] [µM]	SMILES
167				O=C(O)c1cc(=O)c2ccccc2[nH]1 [TRANSTORINE]
8	405	162	0.4	O=C(O)c1cc(O)c2ccc(Cl)cc2n1 [7-CHLOROKYNURENIC ACID]
	1	34	30	O=C(O)CCc1c(C(=O)O)[nH]c2ccccc12
	> 150	> 1000	6	O=C(O)c1cc2c(Cl)cc(Cl)cc2[nH]1
2.5	150	12	0.08	O=C(O)c1cc(O)c2c(Cl)cc(Cl)cc2n1
	10	59	6	O=C(O)CCc1c(C(=O)O)[nH]c2cccc(Cl)c12
5	2550	358	0.14	O=C(O)CCc1c(C(=O)O)[nH]c2cc(Cl)cc(Cl)c12
	105	283	2.7	O=C(O)CCc1c(C(=O)O)[nH]c2cc(Cl)ccc12
	1.8	25	14	O=C(O)CCc1c(C(=O)O)[nH]c2ccc(Cl)cc12
	40	4200	106	O=C(O)c1cc2ccccc2[nH]1 [INDOLE-2-CARBOXYLIC ACID]
	> 1	> 100	90	O=C(O)CCc1c(C(=O)O)[nH]c2c(Cl)cccc12
